The results in this text go back to ChEMBL document CHEMBL3994661, “Mycobacterium tuberculosis chorismate mutase: A potential target for TB” (Bioorg Med Chem, 2017).

Test [1] concerns Escherichia coli. The test is described as follows: Inhibition of Escherichia coli chorismate mutase assessed as ratio of IC50 to chorismate Km.
A short description of test [2]: Inhibition of Mycobacterium tuberculosis chorismate mutase assessed as reduction in conversion of chorismate to prephenate using chorismic acid as substrate after 5 mins by spectrophotometric method.
The subject of test [3] is Mycobacterium tuberculosis. The test is described as follows: Antibacterial activity against Mycobacterium tuberculosis H37Rv after 7 days by microplate alamar blue assay. The format is functional. The conditions noted are these: 168 h.
For test [4], the system named is Escherichia coli. The test is described as follows: Inhibition of Escherichia coli chorismate mutase assessed as ratio of I50 to chorismate Km.
A short description of test [5]: Inhibition of Mycobacterium tuberculosis H37Rv chorismate mutase assessed as reduction in conversion of chorismate to prephenate using chorismic acid as substrate by spectrophotometric method.
Test [6] is described as follows: Inhibition of Mycobacterium tuberculosis chorismate mutase assessed as reduction in conversion of chorismate to prephenate using chorismate as substrate after 1 to 5 mins.
Test [7] in a line: Inhibition of Escherichia coli chorismate mutase.
The nature of test [8]: Competitive inhibition of Bacillus subtilis chorismate mutase using varying levels of chorismic acid as substrate.
The subject of test [9] is Mycobacterium tuberculosis. The test is described as follows: Inhibition of Mycobacterium tuberculosis chorismate mutase expressed in Escherichia coli BL21 (DE3) assessed as reduction in conversion of chorismate to prephenate at 30 uM using chorismic acid as substrate after 5 mins by spectrophotometric method relative to control.
The nature of test [10]: Competitive inhibition of Escherichia coli chorismate mutase using varying levels of chorismic acid as substrate by Lineweaver-burk plot method.

Each structure is given as a SMILES string. pIC50, pKi: −log10 of the molar value. Values after ≈ are worked out from the molar mass of the structure shown.

Take `O=C(O)C1CC2(C(=O)O)C=CC3C(C2)N13` (stereo not given): the Ratio with Escherichia coli [1] is above 20.

On to `O=C(O)C1CC2(C(=O)O)C=CC(O)C(C2)N1` (stereo in doubt; 23), for which the Ratio with Escherichia coli [1] was determined as 18.

Regarding `O=C1OC2CC3(C(=O)O)CC1N1C(C3)C21` (stereo not given), the Ratio in the test on Escherichia coli [1] was 42.

For orientation: pIC50 means the IC50 on a negative log10 scale, so that one unit is a factor of ten. For orientation: MIC means the least concentration at which growth counts as inhibited. A lower MIC goes with inhibition by little substance. As for `O=C1Nc2ccccc2/C1=C/c1ccc([N+](=O)[O-])cc1`, in test [2], the negative logarithm of the IC50 (pIC50) was 6.00. For the same molecule, the MIC in [3] was 23.5 µM (≈ 6.26 µg/mL).

Take `O=C(O)C1CC2CC(C(=O)O)(C=CC2O)C1` (stereo in doubt; 17) [listing 1 of 2 here]: in the test with Escherichia coli [4], the Ratio is 5.6.

As for `CCOC(=O)C1=C(C)NC(=O)N[C@H]1c1ccccc1C#CCCO`, the negative-log IC50 (pIC50) in test [5] was 4.83.

Turning to `Cc1ccc(C(C)C)cc1O` [CARVACROL], the negative logarithm of the IC50 (pIC50) in test [6] was 5.97.

Consider `O=C(O)C1CC2CC(C(=O)O)(C=CC2O)C1` (stereo in doubt; 16) [listing 1 of 2 here], for which, in test [7], the pIC50 is 3.37.

As to `O=C(O)C12CC3CC(C(=O)O)(C1)C2CC3O` (stereo not given), the pIC50 in test [7] is 3.30. Besides, in the test on Escherichia coli [4], the Ratio was found to be 5.6.

The pKi is −log10 of the Ki, conventionally taken in molar units. Turning to `O=C(O)C1CC2([N+](=O)[O-])C=CC(O)C(C2)O1` (stereo not given), in [8], the pKi was 6.52.

For the molecule `O=C1OC2CC3(C(=O)O)CC1NC(C3)C2O` (stereo not given), the Ratio with Escherichia coli [1] is above 50.

Usually inhibition stands for how much of the control response was suppressed. For `CC(=O)c1c(C(C)(C)C)[nH]c2c(S(C)(=O)=O)cc(Cl)cc12`, the inhibition in test [9] worked out at 45%.

Turning to `O=C(O)C1CC2(C(=O)O)C=CC(O)C(C2)N1` (stereo in doubt; 22), the Ratio in the test on Escherichia coli [1] is 1.2.

Consider `O=C(O)C1CC2CC(C(=O)O)(C=CC2O)C1` (stereo in doubt; 17) [listing 2 of 2 here], for which, in test [7], the pIC50 is 3.30.

With `O=C(O)c1cccc([N+](=O)[O-])c1-c1c(C(=O)O)cccc1[N+](=O)[O-]`, the pKi in test [10] is 4.89.

As for `O=C(O)C1CC2(C(=O)O)C=CC(O)C(C2)O1` (stereo not given), in the test on Escherichia coli [1], the Ratio was determined as 0.007.

In the case of `O=C1Nc2ccccc2C1=O` [ISATIN], in test [3], it took 340 µM (≈ 50 µg/mL) to inhibit growth (MIC).

On to `O=C(O)C1CC2CC(C(=O)O)(C=CC2O)C1` (stereo in doubt; 16) [listing 2 of 2 here], for which, in the test on Escherichia coli [4], the Ratio turned out to be 4.8.
